Biological target: human PDE10A (Homo sapiens (Human), UniProt Q9Y233)
Test: human PDE10A full length assay ([3H]-cGMP SPA)
Assay type: biochemical
Details: human PDE10A full length enzyme, 50 nM cGMP + 50 nM [3H]-cGMP, 20 minutes at room temperature; read-out: PDE10A inhibition IC50
Protocol: The human PDE10A full length assay was performed in 96-well micro titer plates. The reaction mixture of 50 μl contained 20 mM HEPES pH=7.5/10 mM MgCl2/0.05 mg/ml BSA (Sigma cat. #A-7906), 50 nM cGMP (Sigma, cat. #G6129) and 50 nM [3H]-cGMP (GE Healthcare, cat. #TRK392 S.A. 13.2 Ci/mmol), 3.75 ng/well PDE10A enzyme (Enzo Life Science, Lausen, Switzerland cat #SE-534) with or without a specific test compound. A range of concentrations of the potential inhibitor was used to generate data for calculating the concentration of inhibitor resulting in 50% of the effect (e.g. IC50, the concentration of the competitor inhibiting PDE10A activity by 50%). Non-specific activity was tested without the enzyme. The reaction was initiated by the addition of the substrate solution (cGMP and [3H]-cGMP) and allowed to progress for 20 minutes at room temperature. The reaction was terminated by adding 25 μl of YSi-SPA scintillation beads (GE Healthcare, cat. #RPNQ0150) in 18 mM zinc sulphate solution (stop reagent). After 1 h under shaking, the plate was centrifuged one minute at 170 g to allow beads to settle. Afterwards, radioactive counts were measured on a Perkin Elmer TopCount Scintillation plate reader.

human PDE10A, sequence (Q9Y233 other isoform, or with tags, fused parts or gaps): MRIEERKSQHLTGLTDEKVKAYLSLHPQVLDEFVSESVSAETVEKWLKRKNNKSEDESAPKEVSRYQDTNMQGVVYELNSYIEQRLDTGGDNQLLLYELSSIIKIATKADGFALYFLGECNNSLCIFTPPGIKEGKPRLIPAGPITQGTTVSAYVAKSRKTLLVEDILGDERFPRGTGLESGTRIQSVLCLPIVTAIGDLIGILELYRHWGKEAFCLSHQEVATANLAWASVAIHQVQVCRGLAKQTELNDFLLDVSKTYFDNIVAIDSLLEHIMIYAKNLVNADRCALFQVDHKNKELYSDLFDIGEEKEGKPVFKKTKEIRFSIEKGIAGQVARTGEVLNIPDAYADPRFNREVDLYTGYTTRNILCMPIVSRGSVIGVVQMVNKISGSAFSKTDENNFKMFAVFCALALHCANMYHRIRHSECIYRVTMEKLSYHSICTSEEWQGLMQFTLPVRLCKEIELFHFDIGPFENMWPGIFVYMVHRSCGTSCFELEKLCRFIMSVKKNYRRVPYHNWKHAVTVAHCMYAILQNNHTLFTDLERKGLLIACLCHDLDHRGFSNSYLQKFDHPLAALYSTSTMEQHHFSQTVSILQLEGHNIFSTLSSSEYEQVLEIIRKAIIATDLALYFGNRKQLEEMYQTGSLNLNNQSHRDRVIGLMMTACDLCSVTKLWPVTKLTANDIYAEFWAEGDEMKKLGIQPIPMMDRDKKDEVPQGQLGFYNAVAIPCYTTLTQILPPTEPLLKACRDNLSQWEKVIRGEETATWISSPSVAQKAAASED

Compound | IC50 [nM]
Cc1nc2c3c(c(CCc4nc(N5CCCC5)nn4C)nn2c1C)CCCC3 [Example 24, 2,3-Dimethyl-6-(2-(1-methyl-3-(pyrrolidin-1-yl)-1H-1,2,4-triazol-5-yl)ethyl)-7,8,9,10-tetrahydroimidazo[2,1-a]phthalazine] | 6
CCN(CC)c1nc(CCc2nc(N3CCCC3)nn2C)nn2c(C)c(C)nc12 [Example 35, N,N-Diethyl-6,7-dimethyl-2-(2-(1-methyl-3-(pyrrolidin-1-yl)-1H-1,2,4-triazol-5-yl)ethyl)imidazo[1,2-f][1,2,4]triazin-4-amine] | 1.41
Cn1nc(N2CCCC2)nc1CCc1ccc2nc(Cl)cn2n1 [Example 37, 2-Chloro-6-(2-(1-methyl-3-(pyrrolidin-1-yl)-1H-1,2,4-triazol-5-yl)ethyl)imidazo[1,2-b]pyridazine] | 338
Cc1nn2ccc(CCc3nc(N4CCCC4)nn3C)nc2c1C [Example 53, 2,3-dimethyl-5-(2-(1-methyl-3-(pyrrolidin-1-yl)-1H-1,2,4-triazol-5-yl)ethyl)pyrazolo[1,5-a]pyrimidine] | 2.1
Cc1nc2c(OC(C)C)cc(C#Cc3nc(N4CCCC4)nn3C)nn2c1C [Example 25, 8-Isopropoxy-2,3-dimethyl-6-((1-methyl-3-(pyrrolidin-1-yl)-1H-1,2,4-triazol-5-yl)ethynyl)imidazo[1,2-b]pyridazine] | 1
Cc1nc2ccc(OCc3nc(N4CCCC4)nn3C)nn2c1C [Example 30, 2,3-Dimethyl-6-((1-methyl-3-(pyrrolidin-1-yl)-1H-1,2,4-triazol-5-yl)methoxy)imidazo[1,2-b]pyridazine] | 98
Cc1nc2c(OC(C)C)cc(/C=C/c3nc(N4CCCC4)nn3C)nn2c1C [Example 26, (E)-8-Isopropoxy-2,3-dimethyl-6-(2-(1-methyl-3-(pyrrolidin-1-yl)-1H-1,2,4-triazol-5-yl)vinyl)imidazo[1,2-b]pyridazine] | 0.493
Cc1cc2nc(C)c(C)n2nc1CCc1nc(N2CCCC2)nn1C [Example 18, 2,3,7-Trimethyl-6-(2-(1-methyl-3-(pyrrolidin-1-yl)-1H-1,2,4-triazol-5-yl)ethyl)imidazo[1,2-b]pyridazine] | 195
Cc1c(C#N)nc2ccc(CCc3nc(N4CCCC4)nn3C)nn12 [Example 5, 3-Methyl-6-[2-(2-methyl-5-pyrrolidin-1-yl-2H-[1,2,4]triazol-3-yl)-ethyl]-imidazo[1,2-b]pyridazine-2-carbonitrile] | 21
Cc1cn2nc(C)c(C)c2nc1CCc1nc(N2CCCC2)nn1C [Example 61, 2,3,6-Trimethyl-5-(2-(1-methyl-3-(pyrrolidin-1-yl)-1H-1,2,4-triazol-5-yl)ethyl)pyrazolo[1,5-a]pyrimidine] | 76
Cc1cn2nc(CCc3nc(N4CCCC4)nn3C)ccc2n1 [Example 68, 2-Methyl-6-(2-(1-methyl-3-(pyrrolidin-1-yl)-1H-1,2,4-triazol-5-yl)ethyl)imidazo[1,2-b]pyridazine] | 146
CNC(=O)c1cc(C#Cc2nc(N3CCCC3)nn2C)nn2c(C)c(C)nc12 [Example 40, N,2,3-Trimethyl-6-((1-methyl-3-(pyrrolidin-1-yl)-1H-1,2,4-triazol-5-yl)ethynyl)imidazo-[1,2-b]pyridazine-8-carboxamide] | 1
CNC(=O)c1cc(CCc2nc(N3CCCC3)nn2C)nn2c(C)c(C)nc12 [Example 41, N,2,3-Trimethyl-6-(2-(1-methyl-3-(pyrrolidin-1-yl)-1H-1,2,4-triazol-5-yl)ethyl)imidazo-[1,2-b]pyridazine-8-carboxamide] | 2
CNC(=O)c1cc(CCc2nc(N3CCCC3)nn2C)nn2c(C)c(C(F)(F)F)nc12 [Example 70, N,3-dimethyl-6-(2-(1-methyl-3-(pyrrolidin-1-yl)-1H-1,2,4-triazol-5-yl)ethyl)-2-(trifluoromethyl)imidazo[1,2-b]pyridazine-8-carboxamide] | 13.7
Cc1nc2cc(C(F)(F)F)c(C#Cc3nc(N4CCCC4)nn3C)nn2c1C [Example 42, 2,3-Dimethyl-6-((1-methyl-3-(pyrrolidin-1-yl)-1H-1,2,4-triazol-5-yl)ethynyl)-7-(trifluoro-methyl)imidazo[1,2-b]pyridazine] | 11
Cc1nc2c(Cl)nc(CCc3nc(N4CCCC4)n(C)n3)nn2c1C [Example 20, 4-Chloro-6,7-dimethyl-2-(2-(1-methyl-5-(pyrrolidin-1-yl)-1H-1,2,4-triazol-3-yl)ethyl)-imidazo[1,2-f][1,2,4]triazine] | 11
Cc1cc2nc(C)c(C)n2nc1C#Cc1nc(N2CCCC2)nn1C [Example 17, 2,3,7-Trimethyl-6-((1-methyl-3-(pyrrolidin-1-yl)-1H-1,2,4-triazol-5-yl)ethynyl)imidazo[1,2-b]pyridazine] | 1

Compound | IC50 [nM]
Cc1nc2c(C3CCC3)cc(CCc3nc(N4CCCC4)nn3C)nn2c1C [Example 48, 8-Cyclobutyl-2,3-dimethyl-6-(2-(1-methyl-3-(pyrrolidin-1-yl)-1H-1,2,4-triazol-5-yl)ethyl)imidazo[1,2-b]pyridazine] | 2.3
Cc1nc2c(C)cc(CCc3nc(N4CCCC4)nn3C)nn2c1C [Example 16, 2,3,8-trimethyl-6-(2-(1-methyl-3-(pyrrolidin-1-yl)-1H-1,2,4-triazol-5-yl)ethyl)-imidazo[1,2-b]pyridazine] | 2
Cc1c(C(F)(F)F)nc2ccc(CCc3nc(N4CCCC4)n(C)n3)nn12 [Example 6, 3-Methyl-6-(2-(1-methyl-5-(pyrrolidin-1-yl)-1H-1,2,4-triazol-3-yl)ethyl)-2-(trifluoromethyl)imidazo[1,2-b]pyridazine] | 19
Cc1c(C(F)(F)F)nc2ccc(CCc3nc(N4CCCC4)nn3C)nn12 [Example 1, 3-Methyl-6-(2-(1-methyl-3-(pyrrolidin-1-yl)-1H-1,2,4-triazol-5-yl)ethyl)-2-(trifluoro-methyl)imidazo[1,2-b]pyridazine] | 12
Cc1c(C(F)(F)F)nc2c(OCC(F)(F)F)cc(C#Cc3nc(N4CCCC4)nn3C)nn12 [Example 62, 3-Methyl-6-((1-methyl-3-(pyrrolidin-1-yl)-1H-1,2,4-triazol-5-yl)ethynyl)-8-(2,2,2-trifluoroethoxy)-2-(trifluoromethyl)imidazo[1,2-b]pyridazine] | 3
COc1cc(/C=C/c2nc(N3CCCC3)nn2C)nn2c(C)c(C(F)(F)F)nc12 [Example 9, (E)-8-methoxy-3-methyl-6-(2-(1-methyl-3-(pyrrolidin-1-yl)-1H-1,2,4-triazol-5-yl)vinyl)-2-(trifluoromethyl)imidazo[1,2-b]pyridazine] | 1
Cc1c(C(F)F)nc2ccc(CCc3nc(N4CCCC4)nn3C)nn12 [Example 8, 2-(Difluoromethyl)-3-methyl-6-(2-(1-methyl-3-(pyrrolidin-1-yl)-1H-1,2,4-triazol-5-yl)ethyl)imidazo[1,2-b]pyridazine] | 8
Cc1nc2c(O)nc(CCc3nc(N4CCCC4)nn3C)nn2c1C [Example 11, 6,7-Dimethyl-2-(2-(1-methyl-3-(pyrrolidin-1-yl)-1H-1,2,4-triazol-5-yl)ethyl)imidazo[1,2-f][1,2,4]triazin-4-ol] | 225
Cc1nc2c(C3CC3)cc(CCc3nc(N4CCCC4)nn3C)nn2c1C [Example 49, 8-Cyclopropyl-2,3-dimethyl-6-(2-(1-methyl-3-(pyrrolidin-1-yl)-1H-1,2,4-triazol-5-yl)ethyl)imidazo[1,2-b]pyridazine] | 2.9
Cc1nn2ccc(C#Cc3nc(N4CCCC4)nn3C)nc2c1C [Example 52, 2,3-Dimethyl-5-((1-methyl-3-(pyrrolidin-1-yl)-1H-1,2,4-triazol-5-yl)ethynyl)pyrazolo[1,5-a]pyrimidine] | 2.6
Cc1cn2nc(C#Cc3nc(N4CCCC4)nn3C)ccc2n1 [Example 67, 2-Methyl-6-((1-methyl-3-(pyrrolidin-1-yl)-1H-1,2,4-triazol-5-yl)ethynyl)imidazo[1,2-b]pyridazine] | 10.2
Cc1nc2cc(C3CCCCC3)c(CCc3nc(N4CCCC4)nn3C)nn2c1C [Example 58, 7-Cyclohexyl-2,3-dimethyl-6-(2-(1-methyl-3-(pyrrolidin-1-yl)-1H-1,2,4-triazol-5-yl)ethyl)imidazo[1,2-b]pyridazine] | 19.8
COc1cc(CCc2nc(N3CCCC3)nn2C)nn2c(C)c(C)nc12 [Example 12, 8-Methoxy-2,3-dimethyl-6-(2-(1-methyl-3-(pyrrolidin-1-yl)-1H-1,2,4-triazol-5-yl)ethyl)imidazo[1,2-b]pyridazine] | 3
Cc1nc2c(C3CC3)cc(C#Cc3nc(N4CCCC4)nn3C)nn2c1C [Example 46, 8-Cyclopropyl-2,3-dimethyl-6-((1-methyl-3-(pyrrolidin-1-yl)-1H-1,2,4-triazol-5-yl)ethynyl)imidazo[1,2-b]pyridazine] | 1
Cc1nnc2ccc(CCc3nc(N4CCCC4)nn3C)nn12 [Example 57, 3-Methyl-6-(2-(1-methyl-3-(pyrrolidin-1-yl)-1H-1,2,4-triazol-5-yl)ethyl)[1,2,4]triazolo[4,3-b]pyridazine] | 534
Cc1nc2ccc(SCc3nc(N4CCCC4)nn3C)nn2c1C [Example 28, 2,3-Dimethyl-6-((1-methyl-3-(pyrrolidin-1-yl)-1H-1,2,4-triazol-5-yl)methylthio)-imidazo[1,2-b]pyridazine] | 568
